Values quoted from earlier work in patent publication US20200225249A1, “COMPOSITIONS AND METHODS FOR THE DIAGNOSIS AND TREATMENT OF DISEASES OF THE LIVER” (Viscient Biosciences, Inc., priority 2019, published 2020).

Tests used:
[1] = tested on: primary neurons and astrocytes; settings: Braidy et al, 2011
rat hepatocytes = settings: Shin M, et al., 1999
QPRT = settings: rat hepatocytes; Shin M, et al., 1999
NASH patients = settings: clinical trial; Laurin J, et al., 1996

Row | SMILES | cell viability [1] | NAD+ levels (rat hepatocytes) | QPRT expression (QPRT) | symptoms of NASH patients (NASH patients)
1 | O=C(O)c1ccccc1C(=O)O [Phthalic acid, 1,2-Benzenedicarboxylic acid] | reduced cell viability |  |  | 
2 | CCOC(=O)C(C)(C)Oc1ccc(Cl)cc1 [Clofibrate] |  | increases NAD+ levels | stimulates QPRT expression | failed to improve the symptoms
